# Measured values reported in publication PMC10384675, “Novel Thiazolidine-2,4-dione-trimethoxybenzene-thiazole Hybrids as Human Topoisomerases Inhibitors” (Pharmaceuticals, 2023).
# What was measured:
# hTopo I = molecular target: T1, hTopo I (Homo sapiens, UniProt P11387); experiment: hTopo I relaxation assay; type: biochemical; design: key to Topoisomerase Inhibition hTopo I: (+) inhibition; (−) no inhibition; (+/−) partial inhibition; settings: 10 µM
# T1 construct: purchased TopoGEN, Port Orange, FL, USA
# T1 sequence (P11387 1-765): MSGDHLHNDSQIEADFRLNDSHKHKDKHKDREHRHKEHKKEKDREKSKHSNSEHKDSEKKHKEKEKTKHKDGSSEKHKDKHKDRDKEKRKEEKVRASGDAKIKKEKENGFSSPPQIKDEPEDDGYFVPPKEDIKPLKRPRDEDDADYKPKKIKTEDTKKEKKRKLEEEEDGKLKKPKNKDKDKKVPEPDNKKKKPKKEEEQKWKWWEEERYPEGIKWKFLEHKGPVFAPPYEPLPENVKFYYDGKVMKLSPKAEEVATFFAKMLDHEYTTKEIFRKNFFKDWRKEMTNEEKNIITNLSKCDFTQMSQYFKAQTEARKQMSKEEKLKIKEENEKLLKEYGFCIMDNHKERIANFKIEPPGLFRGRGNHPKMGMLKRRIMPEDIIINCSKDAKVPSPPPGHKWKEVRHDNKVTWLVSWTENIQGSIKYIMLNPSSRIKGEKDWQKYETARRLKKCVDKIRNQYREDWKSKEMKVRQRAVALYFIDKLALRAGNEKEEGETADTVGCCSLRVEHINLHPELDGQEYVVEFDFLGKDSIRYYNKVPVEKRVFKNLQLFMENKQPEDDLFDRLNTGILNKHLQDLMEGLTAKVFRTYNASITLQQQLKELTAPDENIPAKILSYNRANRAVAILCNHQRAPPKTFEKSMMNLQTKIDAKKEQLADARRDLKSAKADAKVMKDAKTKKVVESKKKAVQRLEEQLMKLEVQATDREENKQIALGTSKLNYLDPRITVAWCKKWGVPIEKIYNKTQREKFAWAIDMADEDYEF
# From the text: Thiazoles and their derivatives are extensively recognized as chemical nuclei of great interest for producing molecules with multiple biological properties. In particular, several compounds bearing these heterocycles were studied for their capability to interfere with DNA topoisomerases (Topos), ubiquitous enzymes essential in several key cellular processes. In recent years, these enzymes have become popular targets in cancer therapy; indeed, the topoisomerase inhibitors can induce damage to genome integrity. Consequently, the inhibition of topoisomerases leads to cell death by apoptosis and, thus, is fatal. Thus, we carried out two specific tests in vitro for both of the Topos, namely the hTopo I relaxation and the hTopo II decatenation assays. For the hTopo I relaxation assay, we exposed the enzyme to the most interesting compounds, 7b–7e, at the final concentration of 10 µM for 1 h at 37 °C, using as substrate the supercoiled pHOT1 (see Section 4 Materials and Methods for more details). […] Contrarily, in the CTRL lane, where the hTopo I was exposed to only vehicle (DMSO), several bands due to pHOT1 DNA cleavage were present (Figure 3, lane C). […] In Figure 3, panel B, the hTopo I inhibition results using ellipticine, as reference molecule are shown. […] An electrophoretic mobility shift of the pHOT1 DNA was also noticeable, due to the intercalating properties of ellipticine.
# hTopo I relaxation assays were performed by incubating the substrate (supercoiled pHOT1) with the recombinant hTopo I (TopoGEN, Port Orange, FL, USA) and compounds, as indicated in the supplier protocol (TopoGEN, Port Orange, FL, USA), with some revisions. hTopo II decatenation assays were conducted by incubating the kinetoplast DNA substrate (kDNA) with the hTopo II (TopoGEN, Port Orange, FL) and studied compounds, as indicated in the supplier procedures (TopoGEN, Port Orange, FL, USA), with some changes as in [80].
# Figure 3 hTopo I relaxation assay. Plasmid pHOT1, used as substrate, was incubated with hTopo I with or without the studied compounds 7b–7e (10 µM concentration), panel (A), and with or without ellipticine (10 and 50 µM concentration), panel (B). Lane A, relaxed DNA marker; lane B, pHOT1 supercoiled DNA, lane C, CTRL (DMSO), lane D–G, compounds 7b–7e 10 µM, respectively. Lane 1, pHOT1 supercoiled DNA; lane 2, CTRL (DMSO), lanes 3–4, ellipticine 10 and 50 µM, respectively.
# A2058 melanoma cells = experiment: MTT cell viability assay, A2058; type: cell-based; settings: Homo sapiens, 72 h
# Description: All of the synthesized compounds (7a–f) were studied to test their anticancer activity toward the estrogen receptor-positive (ER+) MCF-7 and the triple-negative MDA-MB-231 breast cancer cells (ER-, PR- and HER-2/Neu not overexpressed) and A2058 melanoma cells. Cells were incubated for 72 h with different concentrations of the compounds, and then the viability was checked by the MTT assay. […] Moreover, we checked the cytotoxicity of all of the synthesized compounds against the human MCF-10A non-malignant breast epithelial cells and mouse BALB/3T3 embryonic fibroblasts, in order to evaluate their selectivity on cancer cells.
# The used cell lines (breast cancer cell lines MCF-7 and MDA-MB-231, melanoma cell line A2058 and human mammary epithelial cell line MCF-10A) were obtained from American Type Culture Collection (ATCC, Manassas, VA, USA) and cultured as already reported. The mouse BALB/3T3 embryonic fibroblasts were also purchased from American Type Culture Collection (ATCC, Manassas, VA, USA) and cultured in DMEM high glucose supplemented with 10% bovine calf serum (BCS) and 100 U mL^−1 penicillin/streptomycin.
# MTT assay (Sigma Aldrich (St. Louis, MO, USA)) was performed for evaluating the in vitro anticancer activities of the compounds, as previously indicated. Different concentrations (0.1, 1, 10, 25, 50, and 100 μM) of the compounds were employed, with a 72 h endpoint. IC50 values were obtained from the percent (%) of control using GraphPad Prism 9 (GraphPad Software, La Jolla, CA, USA).
# MCF-7 cells = experiment: TUNEL assay; type: cell-based, human; settings: at IC50 value, 24 h
# From the text: Numerous data in the literature indicate that topoisomerase inhibitors are among the most efficient inducers of apoptosis. […] As reference molecule, we adopted ellipticine for this assay, also. […] In contrast, no fluorescence was visible in the DMSO-treated cells used as negative control (Figure 5, CTRL, panel B). These outcomes indicated the ability of the studied compound to induce DNA damage, as ellipticine did, triggering cancer cells death.
# Cell apoptosis was detected by means of the TUNEL assay, following the manufacturer’s protocols (CF™488A TUNEL Assay Apoptosis Detection Kit, Biotium, Hayward, CA, USA), with few modifications, as already reported. DAPI staining (0.2 μg/mL, Sigma Aldrich, Milan, Italy) was used for cell nuclei. A fluorescence microscope (Leica DM 6000) was used for the observations at 20× magnification. LAS-X software allowed the acquisition and processing of all of the images, which were representative of three separate experiments.
# Figure 5 TUNEL assay. MCF-7 breast cancer cells were exposed to compounds 7e and ellipticine (E) at their IC50 values, or to the vehicle (DMSO) for 24 h. Then, they were further processed, as reported in Section 4, and imaged under a fluorescence microscope (20× magnification). Panels (A), DAPI λex,em= 350 nm/460 nm; panels (B), CF^TM488A, λex,em = 490 nm/515 nm; panels (C) show the merge channel.
structure (smiles),measurement,setting,value
"COc1cc(/C=C2\SC(=O)N(CC(=O)Nc3nc(-c4ccc(Br)cc4)cs3)C2=O)cc(OC)c1OC [compound 7e, (Z)-2-(5-(3,4,5-Trimethoxybenzylidene)thiazolidin-2,4-dion-3-yl)-N-(4-(4-bromophenyl)thiazol-2-yl)acetamide]",Topoisomerase Inhibition hTopo I,hTopo I,−
same,hTopo I activity inhibition (in words),"hTopo I; 1 h, 37 °C, supercoiled pHOT1",able to inhibit hTopo I activity
same,IC50,A2058 melanoma cells,8.4 ± 0.9 µM
same,"apoptosis (TUNEL, green nuclear fluorescence)",MCF-7 cells,had undergone the apoptotic process
